One compound from patent EP0183129A1, “Quinolonecarboxylic acid derivatives” (KYORIN PHARMACEUTICAL CO., LTD., priority 1984, dated 1986) can be followed below.

SMILES strings stand for the structures. Converted amounts (≈) assume the structure as drawn. Where two headings read alike, the source gives them in different places.

Assay [1] deals with S. aureus IID 670 (Terajima). Kind of assay: In vitro antibacterial activity, MIC (standard strain). Type of assay: cell-based, Staphylococcus aureus. The settings on record: S. aureus IID 670 (Terajima); 10^6 cells/ml; standard strain; listed as Exp.4.
A further assay has as its system B. fragilis 25285. The assay is described as above. It counts as cell-based, Bacteroides fragilis. The settings on record: B. fragilis 25285; 10^6 cells/ml; standard strain; listed as Exp.4.
The test system of another assay is M. pneumoniae Mac. Kind of assay: In vitro antibacterial activity against Mycoplasma, MIC. The settings on record: Mycoplasmoides pneumoniae, 120 h; M. pneumoniae Mac.; no visible growth after incubation for 5 days; read-out: MIC. It counts as cell-based. An excerpt: Experiment-3 In vitro antibacterial activity against Mycoplasma
The next assay relates to B. fragilis 0558. Kind of assay: In vitro antibacterial activity, MIC (standard strain). Type of assay: cell-based, Bacteroides fragilis. The note with it: B. fragilis 0558; 10^6 cells/ml; standard strain; listed as Exp.4.
Assay [2] deals with Escherichia coli NIHJ JC-2. The description is as above. It counts as cell-based. The settings on record: Escherichia coli NIHJ JC-2; 10^6 cells/ml; standard strain; listed as Exp.4.
In assay [3] the test system is Acinetobacter anitratus IID 876. The description is as above. Type of assay: cell-based. The note with it: Acinetobacter anitratus IID 876; 10^6 cells/ml; standard strain; listed as Exp.4.
In assay [4] the test system is Serratia marcescens IID 618. The assay is described as above. The settings on record: Serratia marcescens IID 618; 10^6 cells/ml; standard strain; listed as Exp.4. It counts as cell-based.
Assay [5] concerns Enterobacter cloacae IID 977. The description is as above. The settings on record: Enterobacter cloacae IID 977; 10^6 cells/ml; standard strain; listed as Exp.4. It counts as cell-based.
A further assay has as its system P. aeruginosa IFO 12689. The description is as above. The settings on record: P. aeruginosa IFO 12689; 10^6 cells/ml; standard strain. It counts as cell-based, Pseudomonas aeruginosa.
In assay [6] the test system is Fusobacterium varium KYA 8501. Described as above. Type of assay: cell-based. The settings on record: Fusobacterium varium KYA 8501; 10^6 cells/ml; standard strain; listed as Exp.4.
A further assay deals with S. aureus Smith. Kind of assay: In vivo antibacterial activity against systemic infection in mice. The arrangement: species or system mice (ICR-S). The note with it: Staphylococcus aureus, po, mice (ICR-S), an hour after intraperitoneal infection. On the procedure: (§1) Experiment-2 In vivo antibacterial activity against systemic infection in mice (ICR-S)
(§2) The infections were produced by intraperitoneal injection of a suspension of the bacterial culture corresponding to the germ studied. The products were administered orally at an hour after the infection.

For another assay, the system named is S. pneumoniae S-4288. The assay is described as above. The arrangement: species or system mice (ICR-S). The note with it: Streptococcus pneumoniae, S4288; mice (ICR-S); oral, an hour after intraperitoneal infection; challenge dose 7.5 x 10^4 ~ 4.8 x 10^6 cfu/mouse; read-out: ED50 S. pneumoniae S-4288. On the procedure: as §1, §2
In a further assay the test system is E. coli ML4707. The description is as above. The arrangement: species or system mice (ICR-S). The note with it: Escherichia coli, ML4707; mice (ICR-S); oral, an hour after intraperitoneal infection; challenge dose 2.7 x 10^6 ~ 8.8 x 10^6 cfu/mouse; read-out: ED50 E. coli ML4707. On the procedure:
as §1, §2

The subject of assay [7] is Alcaligenes faecalis 0104002. Kind of assay: In vitro antibacterial activity, MIC (standard strain). Type of assay: cell-based. The settings on record: Alcaligenes faecalis 0104002; 10^6 cells/ml; standard strain; listed as Exp.4.
A further assay deals with S. epidermidis IID 866. The description is as above. Type of assay: cell-based. The note with it: S. epidermidis IID 866; 10^6 cells/ml; standard strain; listed as Exp.4.

The MIC is the lowest concentration that inhibits growth of the organism. A word on the ED50: it is the midpoint of the dose-response relation. Regarding `NCC1CCN(c2c(F)cc3c(=O)c(C(=O)O)cn(C4CC4)c3c2F)C1` (stereo not shown) [Example 4, 7-(3-Aminomethyl-1-pyrrolidinyl)-1-cyclopropyl-6,8-difluoro-1,4-dihydro-4-oxo-3-quinolinecarboxylic acid], the MIC in assay [1] amounted to 0.025 µg/mL (≈ 0.0688 µM); against B. fragilis 25285, 0.78 µg/mL (≈ 2.15 µM); in the assay on M. pneumoniae Mac., 0.025 µg/mL (≈ 0.0688 µM); in the assay on B. fragilis 0558, 0.78 µg/mL (≈ 2.15 µM); in assay [2] it was 0.0125 µg/mL (≈ 0.0344 µM); in [3] it was 0.05 µg/mL (≈ 0.138 µM). Also, the MIC stood at 0.10 µg/mL (≈ 0.275 µM) in [4]; 0.05 µg/mL (≈ 0.138 µM) in [5]; 0.39 µg/mL (≈ 1.07 µM) against P. aeruginosa IFO 12689; 1.56 µg/mL (≈ 4.29 µM) in assay [6]; 0.78 µg/mL (≈ 2.15 µM) in assay [7]; 0.025 µg/mL (≈ 0.0688 µM) in the assay on S. epidermidis IID 866. For the same compound, the ED50 came to 1.57 mg/kg with S. aureus Smith (challenge dose 5.5 x 10^5 cfu/mouse, n=5, read-out: ED50 against S. aureus Smith); 1.8 mg/kg in the assay with S. aureus Smith (challenge dose 6.0 x 10^5 cfu/mouse, read-out: ED50 S. aureus Smith); 13.8 mg/kg in the assay with S. pneumoniae S-4288; 3 mg/kg with E. coli ML4707.
